Drawing on patent US9745267B2, “Compounds as modulators of RORC” (Boehringer Ingelheim International GmbH, priority 2013, dated 2017), this text covers IC50 for 55 compounds.

In general, IC50 refers to the concentration that gives 50% inhibition.

The target in the assay is T1, RORγt (hRORC LBD) (Homo sapiens, UniProt P51449).
T1 construct: expressed in transfected cells; host or cells: HEK 293 (transient cotransfection with pGL4.3 luc2P/GAL4UAS/Hygro reporter)
T1 sequence (P51449 269-508 limits assumed): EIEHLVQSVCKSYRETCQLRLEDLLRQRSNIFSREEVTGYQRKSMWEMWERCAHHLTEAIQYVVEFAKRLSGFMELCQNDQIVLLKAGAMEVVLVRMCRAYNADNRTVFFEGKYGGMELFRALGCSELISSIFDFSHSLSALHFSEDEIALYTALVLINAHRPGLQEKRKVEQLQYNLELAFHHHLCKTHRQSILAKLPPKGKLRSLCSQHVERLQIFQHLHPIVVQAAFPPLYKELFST
In words: RGA Assay: nuclear receptor transactivation assay, RORγt transactivation of a luciferase reporter. The settings on record: transiently transfected HEK 293 cells, Gal4DBD hRORC LBD, 20-24 hours incubation. The assay is classed as cell-based. The method, then: A nuclear receptor transactivation assay was performed to quantitate the ability of test compounds to inhibit RORγt transactivation of a luciferase reporter. A similar assay is described in: Khan et al., Bioorganic & Medicinal Chemistry Letters 23 (2013), 532-536. The system uses transiently transfected HEK 293 cells cotransfected with two plasmids (pGL4.3, luc2P/GAL4UAS/Hygro, and pBIND, Gal4DBD hRORC LBD1-3). The positive control is co-transiently transfected with both plasmids, and the negative control contains the pGL4.3 promoter sequence. Assays were assembled in 384 well plates where transiently transfected cells and test compound at varying concentrations were incubated for 20-24 hours. The next day, assays plates are taken out and equilibrated at RT for 20-30 minutes. Bright-Glo™ Luciferase Assay System is used to detect Luciferase production. After addition of Bright GLO detection reagent, the plates were incubated at RT for 20 minutes. The plates were read on an Envision plate reader to measure luminescence signal. The RLU signal is converted to POC relative to control and blank wells.
Compound Dilution Buffer:
Bright Glo Luciferase Assay System: Promega #E2620
Thaw lysis buffer provided in kit, add 100 mL lysis buffer to substrate powder.
`CNS(=O)(=O)c1ccc(CNC(=O)N2CC(C)(C)c3cc(-c4ccc(OC)cc4C(F)(F)F)ccc32)cc1` [Example 58]: half-maximal inhibition (IC50) was put at 880 nM.
The result for `CNS(=O)(=O)c1ccc(CNC(=O)N2CC(C)(CC(C)C)c3cc(-c4ccc(F)cc4C)ccc32)cc1` (stereo not shown) [Example 59] reads 1500 nM; that for `CNS(=O)(=O)c1ccc(CNC(=O)N2CC3(CCCC3)c3cc(Oc4cc(C(F)(F)F)ccc4C)ccc32)cc1` [Example 60], 250 nM; that for `CNS(=O)(=O)c1ccc(CNC(=O)N2CC3(CCCC3)c3cc(Oc4cccc(OC(F)(F)F)c4)ccc32)cc1` [Example 61], 730 nM.
The result for `CNS(=O)(=O)c1ccc(CNC(=O)N2CC3(CCCC3)c3cc(Oc4ccc(F)c(OC(F)(F)F)c4)ccc32)cc1` [Example 62] reads 970 nM; that for `CNS(=O)(=O)c1ccc(CNC(=O)N2CC3(CCCC3)c3cc(Oc4cc(OC)ccc4C)ccc32)cc1` [Example 63], 1400 nM; that for `CCCC1(C)CN(C(=O)NCc2ccc(S(=O)(=O)NC)cc2)c2ccc(-c3ccc(OC)cc3C(F)(F)F)cc21` (stereo not shown) [Example 64], 470 nM.
To `CCCC1(C)CN(C(=O)NCc2ccc(S(=O)(=O)NC)cc2)c2ccc(-c3ccc(F)cc3C)cc21` (stereo not shown) [Example 65] belongs 1500 nM; to `CCS(=O)(=O)c1ccc(CNC(=O)N2CC3(CCCC3)c3cc(-c4ccc(OC)cc4C(F)(F)F)ccc32)cc1` [Example 66], 410 nM.
In turn, `CCS(=O)(=O)c1ccc(CNC(=O)N2CC3(CCCC3)c3cc(-c4ccc(O)cc4C)ccc32)cc1` [Example 67] had an IC50 of 410 nM.
To `CNS(=O)(=O)c1ccc(CNC(=O)N2CC3(CCCC3)c3cc(-c4ccc(OC)nc4C)ccc32)cc1` [Example 68] belongs 1900 nM.
`CCS(=O)(=O)c1ccc(CNC(=O)N2CC3(CCCC3)c3cc(-c4ccc(CO)cc4C)ccc32)cc1` [Example 69] gave a half-maximal inhibitory concentration (IC50) of 1100 nM. This IC50 lies about 1.7-fold lower than the previous one.
The result for `CCS(=O)(=O)c1ccc(CNC(=O)N2CC3(CCCC3)c3cc(-c4ccc(C)cc4C#N)ccc32)cc1` [Example 70] reads 1300 nM.
To `CCS(=O)(=O)c1ccc(CNC(=O)N2CC3(CCCC3)c3cc(-c4ccc(C#N)cc4C)ccc32)cc1` [Example 71] belongs 740 nM; to `CCS(=O)(=O)c1ccc(CNC(=O)N2CC3(CCCC3)c3cc(-c4cc(F)ccc4CC#N)ccc32)cc1` [Example 72], 1200 nM.
The result for `CNS(=O)(=O)c1ccc(CNC(=O)N2CC3(CCCC3)c3cc(-c4ccccc4OC(F)(F)F)ccc32)cc1` [Example 73] reads 460 nM; that for `CNS(=O)(=O)c1ccc(CNC(=O)N2CC3(CCCC3)c3cc(-c4c(F)cccc4C(F)(F)F)ccc32)cc1` [Example 75], 140 nM.
For the compound `CCS(=O)(=O)c1ccc(CNC(=O)N2CC3(CCCC3)c3cc(-c4cncnc4C(C)C)ccc32)cc1` [Example 76], the IC50 came out at 610 nM. Compared with the last compound, the IC50 is about 4.4-fold higher.
To `CNS(=O)(=O)c1ccc(CNC(=O)N2CC3(CCCC3)c3cc(-c4cccc(F)c4C)ccc32)cc1` [Example 77] belongs 760 nM.
`CCS(=O)(=O)c1ccc(CNC(=O)N2CC3(CCCC3)c3cc(-c4ccccc4-c4cnco4)ccc32)cc1` [Example 78] gave an IC50 of 790 nM.
The result for `CNS(=O)(=O)c1ccc(CNC(=O)N2CC3(CCCC3)c3cc(-c4cc(F)ccc4C(=O)OC)ccc32)cc1` [Example 79] reads 940 nM; that for `CCOC(=O)c1ccc(F)cc1-c1ccc2c(c1)C1(CCCC1)CN2C(=O)NCc1ccc(S(=O)(=O)NC)cc1` [Example 80], 970 nM; that for `CNS(=O)(=O)c1ccc(CNC(=O)N2CC3(CCCC3)c3cc(-c4ccccc4COC(C)(C)C)ccc32)cc1` [Example 81], 980 nM.
To `COc1ccc(-c2ccc3c(c2)C2(CCCC2)CN3C(=O)NCc2ccc(C#N)cc2)c(C(F)(F)F)c1` [Example 82] belongs 1100 nM; to `CNS(=O)(=O)c1ccc(CNC(=O)N2CC3(CCCC3)c3cc(-c4cc(C)c(OC)cc4C)ccc32)cc1` [Example 83], 370 nM.
To `CNS(=O)(=O)c1ccc(CNC(=O)N2CC3(CCCC3)c3cc(-c4ccc(F)cc4C(=O)OC)ccc32)cc1` [Example 85] belongs 1300 nM; to `CNS(=O)(=O)c1ccc(CNC(=O)N2CC3(CCCC3)c3cc(-c4ccccc4C(C)(C)O)ccc32)cc1` [Example 86], 1000 nM; to `CNS(=O)(=O)c1ccc(CNC(=O)N2CC3(CCCC3)c3cc(-c4ccccc4CC(F)(F)F)ccc32)cc1` [Example 87], 680 nM.
As to `CNS(=O)(=O)c1ccc(CNC(=O)N2CC3(CCCC3)c3cc(-c4ccc(O)cc4C#N)ccc32)cc1` [Example 88], the IC50 was found to be 910 nM.
Take `CNS(=O)(=O)c1ccc(CNC(=O)N2CC3(CCCC3)c3cc(-c4c(C)cc(CO)cc4C)ccc32)cc1` [Example 89]: the IC50 amounted to 990 nM.
The result for `CNS(=O)(=O)c1ccc(CNC(=O)N2CC3(CCCC3)c3cc(-c4c(C)ccc(F)c4CC#N)ccc32)cc1` [Example 90] reads 580 nM; that for `CNS(=O)(=O)c1ccc(CNC(=O)N2CC3(CCCC3)c3cc(-c4c(C)cccc4C#N)ccc32)cc1` [Example 91], 870 nM; that for `CNS(=O)(=O)c1ccc(CNC(=O)N2CC3(CCCC3)c3cc(-c4cc(O)ccc4C)ccc32)cc1` [Example 92], 1100 nM.
`CNS(=O)(=O)c1ccc(CNC(=O)N2CC3(CCCC3)c3cc(-c4cc(F)c(C#N)cc4C)ccc32)cc1` [Example 93] displayed an IC50 of 1200 nM.
`CNS(=O)(=O)c1ccc(CNC(=O)N2CC3(CCCC3)c3cc(C4=C(C)CCCC4)ccc32)cc1` [Example 95] gave an IC50 of 340 nM.
To `COc1ccc(-c2ccc3c(c2)C2(CCCC2)CN3C(=O)NCc2ccc(C#N)cc2OC)c(C(F)(F)F)c1` [Example 96] belongs 450 nM; to `COc1ccc(-c2ccc3c(c2)C2(CCCC2)CN3C(=O)NCc2ccc(C#N)c(C)c2)c(C(F)(F)F)c1` [Example 97], 770 nM.
To `CNS(=O)(=O)c1ccc(CNC(=O)N2CC3(CCCC3)c3cc(-c4cc(CN)ccc4C)ccc32)cc1` [Example 98] belongs 1200 nM.
`COCCOc1cc(C#N)ccc1CNC(=O)N1CC2(CCCC2)c2cc(-c3ccc(OC)cc3C(F)(F)F)ccc21` [Example 100]: the IC50 was found to be 1200 nM.
The result for `COCCOc1cc(S(C)(=O)=O)ccc1CNC(=O)N1CC2(CCCC2)c2cc(-c3ccc(OC)cc3C(F)(F)F)ccc21` [Example 101] reads 1100 nM; that for `COc1cc(C#N)ccc1CNC(=O)N1CC2(CCCC2)c2cc(-c3ccc(O)cc3C(F)(F)F)ccc21` [Example 102], 180 nM.
The result for `CNS(=O)(=O)c1ccc(CNC(=O)N2CC3(CCCC3)c3cc(-c4cc(CN5CCC(O)C5)ccc4C)ccc32)cc1` (stereo not shown) [Example 103] reads 1800 nM; that for `CCS(=O)(=O)c1ccc(CNC(=O)N2CC3(CCCC3)c3cc(-c4ccc(OC)cc4C(F)(F)F)ccc32)c(OC)c1` [Example 104], 350 nM.
The result for `COc1ccc(-c2ccc3c(c2)C2(CCCC2)CN3C(=O)NCc2ccc(S(C)(=O)=O)cc2OC)c(C(F)(F)F)c1` [Example 105] reads 430 nM; that for `CN(C)c1ncc(-c2ccc3c(c2)C2(CCCC2)CN3C(=O)NCc2ccc(S(C)(=O)=O)cc2)c(C(F)(F)F)n1` [Example 106], 650 nM; that for `CCC(C)c1ncncc1-c1ccc2c(c1)C1(CCCC1)CN2C(=O)NCc1ccc(S(C)(=O)=O)cc1` (stereo not shown) [Example 107], 1500 nM.
In the case of `COc1ncc(-c2ccc3c(c2)C2(CCCC2)CN3C(=O)NCc2ccc(S(C)(=O)=O)cc2)c(C2CC2)n1` [Example 108], the IC50 is 1600 nM.
`COc1ncnc(C)c1-c1ccc2c(c1)C1(CCCC1)CN2C(=O)NCc1ccc(S(C)(=O)=O)cc1` [Example 109] registered a half-inhibitory concentration (IC50) of 1700 nM.
To `COc1ncnc(C(F)(F)F)c1-c1ccc2c(c1)C1(CCCC1)CN2C(=O)NCc1ccc(S(C)(=O)=O)cc1` [Example 110] belongs 600 nM.
As for `CCS(=O)(=O)c1ccc(CNC(=O)N2CC3(CCCC3)c3cc(-c4cnc(N)nc4C(F)(F)F)ccc32)cc1` [Example 111], the IC50 was determined as 1700 nM.
The result for `CCS(=O)(=O)c1ccc(CNC(=O)N2CC3(CCCC3)c3cc(-c4c(OC)ncnc4C4CC4)ccc32)cc1` [Example 112] reads 520 nM; that for `CCS(=O)(=O)c1ccc(CNC(=O)N2CC(C)(C3CC3)c3cc(-c4cncnc4C(C)C)ccc32)cc1` (stereo not shown) [Example 113], 530 nM; that for `CCS(=O)(=O)c1ccc(CNC(=O)N2CC3(CCCC3)c3cc(-c4c(C)ccnc4OC)ccc32)cc1` [Example 114], 500 nM.
The result for `CCS(=O)(=O)c1ccc(CNC(=O)N2CC(C)(C3CCC3)c3cc(-c4cncnc4C(C)C)ccc32)cc1` (stereo not shown) [Example 116] reads 1000 nM.
To `CCS(=O)(=O)c1ccc(CNC(=O)N2CC(C)(C3CCC3)c3cc(-c4c(OC)ncnc4C4CC4)ccc32)cc1` (stereo not shown) [Example 117] belongs 480 nM.
